Measured values: PMC3909768 (Journal of Cancer, 2014)
Values joined by “and” are separate entries in the source; they are usually repeats but may differ in a detail not shown here. Identical values can stand only once. Values belong to the compound of their own block, whether it stands above or below them.

Experiments:
[1] = Plasma protein binding by equilibrium dialysis, rat; type: in vitro ADME; conditions: Rats plasma, 1 uM, equilibrium dialysis 4h 37C
[2] = Plasma protein binding by equilibrium dialysis, dog; type: in vitro ADME; conditions: Dogs plasma, 1 uM, equilibrium dialysis 4h 37C
[3] = Plasma protein binding by equilibrium dialysis, human; type: in vitro ADME; conditions: 1 uM, equilibrium dialysis 4h 37C
[4] = Brain and prostate distribution after single IV in rats; conditions: rat, in vivo, 2 mg/kg; for concentration at 30 min / concentration at 120 min: single IV 2 mg/kg
CYP3A = CYP3A induction in human hepatocytes; type: in vitro ADME; conditions: for CYP3A induction, in words: 1uM; for CYP 3A induction, Positive control, %: human hepatocytes, 48 hours
[5] = Drug concentration in plasma and xenograft tumor after 21-day dosing; conditions: male, CB17-SCID, mouse, in vivo
[6] = system: AR-dependent PSA expression in prostate cancer cells LnCAP; assay: DHT-induced PSA expression in LnCAP cells; type: cell-based
AR = biological target: T1, AR (Homo sapiens, UniProt P10275); type: cell-based
T1 sequence (P10275 1-920): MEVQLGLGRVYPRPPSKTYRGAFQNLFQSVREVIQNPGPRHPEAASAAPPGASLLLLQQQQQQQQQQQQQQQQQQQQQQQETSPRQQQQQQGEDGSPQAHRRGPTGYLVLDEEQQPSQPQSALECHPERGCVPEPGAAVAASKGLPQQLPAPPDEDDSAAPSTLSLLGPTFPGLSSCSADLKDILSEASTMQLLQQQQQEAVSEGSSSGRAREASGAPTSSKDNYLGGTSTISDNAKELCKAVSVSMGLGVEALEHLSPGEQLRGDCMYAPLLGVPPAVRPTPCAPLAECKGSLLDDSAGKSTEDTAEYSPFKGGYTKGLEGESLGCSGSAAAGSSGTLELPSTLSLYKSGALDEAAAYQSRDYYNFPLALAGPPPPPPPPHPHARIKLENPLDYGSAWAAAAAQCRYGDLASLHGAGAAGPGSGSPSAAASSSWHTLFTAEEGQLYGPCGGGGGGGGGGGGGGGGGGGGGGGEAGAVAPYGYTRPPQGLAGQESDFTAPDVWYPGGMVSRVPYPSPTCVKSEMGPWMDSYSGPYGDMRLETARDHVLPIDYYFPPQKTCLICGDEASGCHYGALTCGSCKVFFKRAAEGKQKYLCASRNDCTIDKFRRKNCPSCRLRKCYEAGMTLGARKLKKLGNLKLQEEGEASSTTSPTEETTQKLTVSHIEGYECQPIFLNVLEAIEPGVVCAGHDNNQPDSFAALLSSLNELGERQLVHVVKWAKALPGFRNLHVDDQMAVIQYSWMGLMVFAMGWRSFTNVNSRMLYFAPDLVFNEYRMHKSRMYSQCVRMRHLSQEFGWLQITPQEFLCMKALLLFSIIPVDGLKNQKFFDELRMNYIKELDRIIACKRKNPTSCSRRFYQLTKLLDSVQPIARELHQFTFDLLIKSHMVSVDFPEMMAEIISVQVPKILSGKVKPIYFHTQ

GABA receptors = assay: [3H]GABA binding, rat cerebral cortex membranes; conditions: 10uM
LnCaP-Z2 tumors = assay: LnCaP-Z2 xenograft antitumor efficacy; type: in vivo, male CB17-SCID mice
[7] = Plasma protein binding by equilibrium dialysis, mouse; type: in vitro ADME; conditions: Mice plasma, 1 uM, equilibrium dialysis 4h 37C
[8] = system: androgen-dependent reproductive organs; assay: Weight of androgen-dependent reproductive organs in rats, 14 days; type: in vivo, male rats; conditions: 30, 100 and 300 mg/kg/day po
[9] = system: spermatozoon in epididymis; assay: Concentration of spermatozoon in epididymis of rats, 60 days; type: in vivo, male rats; conditions: n=6
Dog pharmacokinetics = type: in vivo, male beagle dogs; conditions: multiple oral doses in dogs
CYP 1A2 = biological target: T2, CYP 1A2 (Homo sapiens, UniProt P05177); assay: CYP inhibition; type: in vitro ADME; conditions: concentrations up to 10 uM
T2 sequence (P05177 1-516): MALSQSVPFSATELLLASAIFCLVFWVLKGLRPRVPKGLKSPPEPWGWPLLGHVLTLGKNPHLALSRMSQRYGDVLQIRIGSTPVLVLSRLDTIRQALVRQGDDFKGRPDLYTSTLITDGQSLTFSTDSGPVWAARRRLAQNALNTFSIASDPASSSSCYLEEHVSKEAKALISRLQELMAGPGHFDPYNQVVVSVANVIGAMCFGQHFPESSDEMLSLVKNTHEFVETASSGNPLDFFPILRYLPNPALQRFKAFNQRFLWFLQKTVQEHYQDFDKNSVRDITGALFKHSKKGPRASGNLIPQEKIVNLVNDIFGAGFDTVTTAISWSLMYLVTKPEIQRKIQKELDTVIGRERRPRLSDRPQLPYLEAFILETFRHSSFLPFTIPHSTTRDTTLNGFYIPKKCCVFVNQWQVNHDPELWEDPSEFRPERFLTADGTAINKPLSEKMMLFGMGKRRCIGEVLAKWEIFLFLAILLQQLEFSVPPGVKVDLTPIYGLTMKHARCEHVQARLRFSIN

CYP 2C9 = CYP 2C9 (Homo sapiens, UniProt P11712); assay: CYP inhibition; type: in vitro ADME; conditions: concentrations up to 10 uM
Chain of CYP 2C9 (P11712 whole entry): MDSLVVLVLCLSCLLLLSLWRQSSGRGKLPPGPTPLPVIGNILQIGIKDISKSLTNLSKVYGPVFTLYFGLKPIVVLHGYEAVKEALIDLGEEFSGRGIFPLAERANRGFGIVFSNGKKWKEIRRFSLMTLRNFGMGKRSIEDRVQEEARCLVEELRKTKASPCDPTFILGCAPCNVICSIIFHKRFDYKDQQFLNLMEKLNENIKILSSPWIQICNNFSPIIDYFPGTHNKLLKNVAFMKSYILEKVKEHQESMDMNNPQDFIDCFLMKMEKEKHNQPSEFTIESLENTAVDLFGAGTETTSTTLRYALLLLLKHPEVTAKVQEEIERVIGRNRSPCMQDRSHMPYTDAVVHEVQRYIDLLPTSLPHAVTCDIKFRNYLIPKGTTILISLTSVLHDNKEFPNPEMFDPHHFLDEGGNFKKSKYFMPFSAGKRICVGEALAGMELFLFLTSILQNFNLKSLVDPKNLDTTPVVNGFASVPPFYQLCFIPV

CYP 2C19 = CYP 2C19 (Homo sapiens, UniProt P33261); assay: CYP inhibition; type: in vitro ADME; conditions: concentrations up to 10 uM
Chain of CYP 2C19 (P33261 whole entry): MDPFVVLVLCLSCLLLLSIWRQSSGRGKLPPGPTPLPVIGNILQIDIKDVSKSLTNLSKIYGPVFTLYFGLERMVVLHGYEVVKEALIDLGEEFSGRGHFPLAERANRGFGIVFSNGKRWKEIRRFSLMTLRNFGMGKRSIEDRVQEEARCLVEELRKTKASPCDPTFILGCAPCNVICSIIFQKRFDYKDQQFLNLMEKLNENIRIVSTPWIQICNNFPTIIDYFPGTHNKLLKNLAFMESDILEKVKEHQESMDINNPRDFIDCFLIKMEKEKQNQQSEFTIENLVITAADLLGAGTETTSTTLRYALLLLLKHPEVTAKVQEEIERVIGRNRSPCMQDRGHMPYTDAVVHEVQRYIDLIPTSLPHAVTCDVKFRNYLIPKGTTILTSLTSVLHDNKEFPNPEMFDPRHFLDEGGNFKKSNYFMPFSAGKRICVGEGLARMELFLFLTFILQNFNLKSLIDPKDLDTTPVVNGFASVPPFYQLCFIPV

CYP 2D6 = CYP 2D6 (Homo sapiens, UniProt P10635); assay: CYP inhibition; type: in vitro ADME; conditions: concentrations up to 10 uM
Chain of CYP 2D6 (P10635 whole entry): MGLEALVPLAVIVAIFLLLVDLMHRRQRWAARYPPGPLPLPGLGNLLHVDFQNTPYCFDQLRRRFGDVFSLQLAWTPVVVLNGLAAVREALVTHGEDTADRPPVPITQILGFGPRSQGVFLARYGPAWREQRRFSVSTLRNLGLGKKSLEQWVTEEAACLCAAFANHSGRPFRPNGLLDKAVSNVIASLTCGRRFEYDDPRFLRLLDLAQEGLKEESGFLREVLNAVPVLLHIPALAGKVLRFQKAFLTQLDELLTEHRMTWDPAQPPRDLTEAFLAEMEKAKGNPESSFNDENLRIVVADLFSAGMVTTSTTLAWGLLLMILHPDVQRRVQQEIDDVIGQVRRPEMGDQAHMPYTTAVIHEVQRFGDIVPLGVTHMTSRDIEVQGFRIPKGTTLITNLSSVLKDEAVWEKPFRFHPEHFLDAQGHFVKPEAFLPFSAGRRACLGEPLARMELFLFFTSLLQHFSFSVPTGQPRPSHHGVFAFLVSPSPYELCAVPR

CYP 3A4 = CYP 3A4 (Homo sapiens, UniProt P08684); assay: CYP inhibition; type: in vitro ADME; conditions: concentrations up to 10 uM
Chain of CYP 3A4 (P08684 whole entry, the tested form may be a part): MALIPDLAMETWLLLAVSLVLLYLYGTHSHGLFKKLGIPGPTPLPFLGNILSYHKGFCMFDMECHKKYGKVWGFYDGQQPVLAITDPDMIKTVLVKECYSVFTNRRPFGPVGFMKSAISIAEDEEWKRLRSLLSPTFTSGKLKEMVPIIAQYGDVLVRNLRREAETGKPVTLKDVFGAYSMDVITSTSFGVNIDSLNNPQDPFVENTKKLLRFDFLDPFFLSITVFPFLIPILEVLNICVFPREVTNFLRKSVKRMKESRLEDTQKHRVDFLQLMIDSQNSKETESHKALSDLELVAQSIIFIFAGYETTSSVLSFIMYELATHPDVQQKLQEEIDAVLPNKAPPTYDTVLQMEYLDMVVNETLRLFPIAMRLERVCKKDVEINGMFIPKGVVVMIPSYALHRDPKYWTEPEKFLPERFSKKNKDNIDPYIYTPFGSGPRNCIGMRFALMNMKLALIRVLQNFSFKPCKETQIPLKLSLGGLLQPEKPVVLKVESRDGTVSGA

AR-LBD = biological target: T3, AR-LBD (Homo sapiens, UniProt P10275); assay: biochemical
T3 sequence (P10275 669-900 limits assumed): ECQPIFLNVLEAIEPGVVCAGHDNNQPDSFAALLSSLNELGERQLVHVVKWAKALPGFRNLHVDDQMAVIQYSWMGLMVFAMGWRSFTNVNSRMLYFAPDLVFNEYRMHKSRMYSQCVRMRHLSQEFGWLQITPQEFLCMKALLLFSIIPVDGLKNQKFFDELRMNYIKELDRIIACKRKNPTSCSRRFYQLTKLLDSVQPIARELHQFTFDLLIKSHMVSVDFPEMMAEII

Rat pharmacokinetics = conditions: for C24h: after 14 administrations; for AUC(0-inf) / k el / MRT inf / concentration at 24 h / Cmax / Tmax / half-life: male, Sprague Dawley, rat, in vivo

Bound fraction [1]: 96.4%
Bound fraction [2]: 97.3%
Bound fraction [3]: 98.4%
Kp at 30 min [4]: 0.39 ± 0.03
Kp at 120 min [4]: 0.33 ± 0.16
concentration at 30 min ([4]; Prostate): 102 ± 4 ng/g
concentration at 120 min ([4]; Prostate): 124 ± 27 ng/g
concentration at 30 min ([4]; brain): 164 ± 19 ng/g
concentration at 120 min ([4]; brain): 152 ± 31 ng/g
concentration at 30 min ([4]; plasma): 263 ± 19 ng/mL
concentration at 120 min ([4]; plasma): 377 ± 153 ng/mL
CYP3A induction, in words (CYP3A): still active
CYP 3A induction, Positive control, % (CYP3A; 1 uM): 10.0±2.0%
CYP 3A induction, Positive control, % (CYP3A; 10 uM): 73.3±6.8%
Kp at 24 h ([5]; 10 mg/kg): 0.53 ± 0.15
Compound: CNC(=O)c1ccc(N2C(=S)N(c3ccc(C#N)c(C(F)(F)F)c3)C(=O)C2(C)C)cc1F [MDV3100]

Compound: CNC(=O)c1ccc(N2C(=S)N(c3ccc(C#N)c(C(F)(F)F)c3)C(=O)[C@]23CCOC3)cc1F [ONC1-13B, 4-[(R)-3-(4-Cyano-3-trifluoromethyl-phenyl)-4-oxo-2-thioxo-7-oxa-1,3-diaza-spiro[4.4]non-1-yl]-2-fluoro-N-methyl-benzamide]
fold more efficient than bicalutamide in inhibiting DHT-induced PSA expression [6]: around 10 fold
inhibition of 6a-Fluotestosterone induced AR nuclear translocation, in words (AR): completely inhibit
inhibition of [3H]GABA specific binding (GABA receptors): 42%
antitumor efficacy, in words (LnCaP-Z2 tumors; 20 mg/kg twice daily): highest antitumor efficacy
tumors regressed (LnCaP-Z2 tumors; 20 mg/kg twice daily po, 21 days): 4 of 8
antitumor efficacy, in words (LnCaP-Z2 tumors; once daily at 20 or 50 mg/kg, vs MDV3100 10mg/kg once daily): comparable to MDV3100
Bound fraction [7]: 90.7%
Bound fraction [1]: 89.7%
Bound fraction [2]: 89.5%
Bound fraction [3]: 89.3%
weight of prostate, epididymis and seminal vesicles, in words [8]: significantly and dose-dependently decreases
Concentration of spermatozoon in epididymis, M±m ([9]; 30 mg/kg po): 29,00 ± 2,73 х 10^6/ml
Concentration of spermatozoon in epididymis, M±m ([9]; 300 mg/kg po): 16,00 ± 2,37 х 10^6/ml
steady-state reached after (Dog pharmacokinetics): 10 administrations
Kp [4]: 1.2 to 1.6
Kp at 30 min [4]: 1.55 ± 0.08
Kp at 120 min [4]: 1.2 ± 0.36
concentration at 30 min ([4]; Prostate): 1160 ± 164 ng/g
concentration at 120 min ([4]; Prostate): 625 ± 108 ng/g
concentration at 30 min ([4]; brain): 145 ± 22 ng/g
concentration at 120 min ([4]; brain): 89 ± 10 ng/g
concentration at 30 min ([4]; plasma): 746 ± 104 ng/mL
concentration at 120 min ([4]; plasma): 522 ± 57 ng/mL
CYP3A induction, in words (CYP3A): no activity
CYP 3A induction, Positive control, % (CYP3A; 1 uM, listed as ONC1-0013B): 0.0±2.0% and 3.3±0.6%
fold less potent in CYP3A induction compared to MDV3100 and ARN-509 (CYP3A; 10uM): ~ 2 fold
CYP 3A induction, Positive control, % (CYP3A; 10 uM, listed as ONC1-0013B): 51.3±3.5% and 42.0±6.1%
inhibition of CYP 1A2 activity (CYP 1A2): doesn`t inhibit
inhibition of CYP 2C9 activity (CYP 2C9): doesn`t inhibit
inhibition of CYP 2C19 activity (CYP 2C19): doesn`t inhibit
inhibition of CYP 2D6 activity (CYP 2D6): doesn`t inhibit
inhibition of CYP 3A4 activity (CYP 3A4): doesn`t inhibit
IC50 (AR-LBD): 19.9 µM
C24h (Rat pharmacokinetics; Multiple PO 100 mg/kg): 2 794 ng/mL
C24h (Rat pharmacokinetics; Multiple PO 300 mg/kg): 2 122 ng/mL
Vss_obs (Rat pharmacokinetics; Single IV 1 mg/kg): 2.0 L/kg
Сl (Rat pharmacokinetics; Single IV 1 mg/kg): 6.4 mL/min/kg
AUC(0-inf) (Rat pharmacokinetics; iv, 1 mg/kg): 2.57 µg·h/mL
k el (Rat pharmacokinetics; iv, 1 mg/kg): 4.64e-05 s⁻¹
MRT inf (Rat pharmacokinetics; po, 5 mg/kg): 7 h
concentration at 24 h (Rat pharmacokinetics; po, 5 mg/kg): 51 ng/mL
k el (Rat pharmacokinetics; po, 5 mg/kg): 3.61e-05 s⁻¹
AUC(0-inf) (Rat pharmacokinetics; po, 30 mg/kg): 95 µg·h/mL
Cmax (Rat pharmacokinetics; po, 30 mg/kg): 7160 ng/mL
MRT inf (Rat pharmacokinetics; po, 30 mg/kg): 4 h
Tmax (Rat pharmacokinetics; po, 30 mg/kg): 4 h
concentration at 24 h (Rat pharmacokinetics; po, 30 mg/kg): 159 ng/mL
half-life (Rat pharmacokinetics; po, 30 mg/kg): 4 h
k el (Rat pharmacokinetics; po, 30 mg/kg): 5.28e-05 s⁻¹
AUC(0-inf) (Rat pharmacokinetics; po, 100 mg/kg): 268 µg·h/mL
Cmax (Rat pharmacokinetics; po, 100 mg/kg): 16400 ng/mL
MRT inf (Rat pharmacokinetics; po, 100 mg/kg): 10 h
Tmax (Rat pharmacokinetics; po, 100 mg/kg): 4 h
half-life (Rat pharmacokinetics; po, 100 mg/kg): 8 h
k el (Rat pharmacokinetics; po, 100 mg/kg): 2.5e-05 s⁻¹
AUC(0-inf) (Rat pharmacokinetics; po, 300 mg/kg): 314 µg·h/mL
Cmax (Rat pharmacokinetics; po, 300 mg/kg): 20500 ng/mL
MRT inf (Rat pharmacokinetics; po, 300 mg/kg): 7 h
Tmax (Rat pharmacokinetics; po, 300 mg/kg): 4 h
half-life (Rat pharmacokinetics; po, 300 mg/kg): 6 h
k el (Rat pharmacokinetics; po, 300 mg/kg): 3.06e-05 s⁻¹
Kp at 24 h ([5]; 20 mg/kg): 0.78 ± 0.08
concentration at 24 h ([5]; 20 mg/kg): 76.2 ng/mL and 52.6 ng/g
Kp at 24 h ([5]; 50 mg/kg): 0.77 ± 0.13
concentration at 24 h ([5]; 50 mg/kg): 154 ng/mL and 138 ng/g
Kp at 16 h ([5]; po, 20 mg/kg): 0.72 ± 0.05
concentration at 16 h ([5]; po, 20 mg/kg): 456 ng/mL and 442 ng/g
